# System: Ninety four (94) cell lines and PBMC
# Assay: Cell viability assay, SRB staining, 94 cell lines and PBMC (Example 7, Experiment 2)
# Assay type: cell-based
# Description: Ninety four (94) cell lines were seeded at a density varying from 500 to 7000 cells/well depending on their growth characteristics. PBMC were seeded at the density 50,000-100,000 cells/well. Cells were incubated for 48 h prior to compound treatment. Compound 1 and DON were evaluated at a concertation range of 1 nM up to 100 μM. Compound 1 dilutions in DMSO and DON dilutions in PBS were performed in 96-well 0.5 mL plates (Greiner Bio-One, Germany). Compounds were then diluted 1:100 in RPMI medium. […] of cells were treated by mixing with 10 μL of the compound-containing media (resulting in a final DMSO concentration of 0.1%). The cells were allowed to grow at 37° C. for 120 h. Cells were fixed to the surface by addition of 10% TCA (for adherent growing cells) or 50% TCA (for semi-adherent growing cells or cells growing in suspension). After an hour of incubation at 4° C., plates were washed twice with 400 μL of deionized water and dried. Cells were then stained with 100 μL of 0.04% wt/v SRB. The plates were incubated at room temperature for at least 30 min and washed six times with 1% acetic acid to remove unbound stain. The plates were left to dry at room temperature and bound SRB was solubilized with 100 μL of 10 mM Tris base. Optical density was measured at 492, 520 and 560 nm using a Deelux-LED96 plate reader (Deelux Labortechnik GmbH, Germany).
# Cell lines were purchased directly from the ATCC, NCI, CLS, and DSMZ cell line collections. A master bank and working aliquots were prepared. Cells used for the study had undergone less than 20 passages. To rule out potential contamination or wrong assignment, all cell lines were tested by STR analysis. Absence of mycoplasma contamination was confirmed for all cell lines used in the studies.
# The cell lines were grown in the media recommended by the suppliers in the presence of 100 U/mL penicillin and 100 μg/mL streptomycin supplied with 10% FCS (PAA, Germany). RPMI 1640, DMEM, and MEM Earle's medium were from PAA (Coelbe, Germany), supplements 2 mM L-glutamine, 1 mM Na-pyruvate and 1% NEAA were from PAA (Coelbe, Germany), 2.5% horse serum, hydrocortisone, transferin, beta-estradiol, selenite and 1 U/mL insulin from Sigma-Aldrich (Munich, Germany). RPMI medium was used for culturing the following cell lines: 5637, 22RV1, 7860, A2780, A431, A549, ACHN, ASPC1, BT20, BXPC3, CAKI1, CLS439, COLO205, COLO678, DLD1, DU145, EFO21, EJ28, HCT15, HS578T, IGROV1, JAR, LOVO, MCF7, MDA MB231, MDA MB435, MDA MB436, MDA MB468, MHHES1, MT3, NCI H292, NCI H358M, NCI H460, NCIH82, OVCAR3, OVCAR4, PANC 1005 (addition of insulin), PBMC, PC3, RDES, SF268, SF295, SKBR3, SK MEL28, SKMEL5, SKOV3, SW620, U2OS, UMUC3, and U031.
# DMEM medium was used to culture A204, A375, A673, C33A, CASKI, HCT116, HEPG2, HS729, HT29, J82, MG63, MIAPACA2 (addition of horse serum), PANC1, PLCPRF5, RD, SAOS2, SKLMS1, SKNAS, SNB75, T24, and TE671.
# MEM Earle's medium was used for CACO2, CALU6, HEK293, HELA, HT1080, IMR90, JEG3, JIMT1, SKHEP1, SKNSH, and U87MG. Cell seeding conditions were optimized for each cell line. The cell seeding density varied from 500 to 7000 cells/well depending on their growth characteristics. Peripheral blood mononuclear cells (PBMC) were freshly isolated from whole blood of an anonymous donor through density gradient centrifugation using Ficoll solution (d=1.077). In short, blood was diluted 1:1 with PBS and carefully placed on the Ficoll. After centrifugation 1000×g for 15 min (braking rate 0), the ring containing mainly leucocytes was collected in PBS followed by three times washing with PBS to reduce the platelets. PBMC were seeded at the density 50,000-100,000 cells/well. Cells were grown in 5% CO2 atmosphere in a NB-203XXL incubator (N-BIOTEK Inc., Korea).
# Ninety-four cell lines were tested in parallel. Cell growth and treatment were performed in 96 well microtitre plates CELLSTAR® (Greiner Bio-One, Germany). […]
# [1] = Homo sapiens, MDA-MB-468, MDAMB468, breast
# [2] = Homo sapiens, MG-63, MG63, bone
# [3] = Homo sapiens, MHH-ES-1, MHHES1, bone
# [4] = Homo sapiens, MIA PaCa-2, MIAPACA2, pancreas
# [5] = Homo sapiens, MINO, hematological
# [6] = Homo sapiens, MV4-11, MV4-11, hematological
# [7] = Homo sapiens, NCI-H460, NCIH460, lung
# [8] = Homo sapiens, OVCAR-3, OVCAR3, ovary
# [9] = Homo sapiens, OVCAR-4, OVCAR4, ovary
# [10] = Homo sapiens, PANC-1, PANC1, pancreas
# [11] = Homo sapiens, PLC-PRF-5, PLCPRF5, liver
# [12] = Homo sapiens, Panc1005, PANC1005, pancreas
# [13] = Homo sapiens, SAOS-2, SAOS2, bone
# [14] = Homo sapiens, SF-268, SF268, brain
# [15] = Homo sapiens, SF-295, SF295, brain
# [16] = Homo sapiens, SK-BR-3, SKBR3, breast
# [17] = Homo sapiens, SK-HEP1, SKHEP1, liver
# [18] = Homo sapiens, SK-LMS-1, SKLMS1, uterus
# [19] = Homo sapiens, SK-MEL-5, SKMEL5, skin
# [20] = Homo sapiens, SK-MEL-28, SKMEL28, skin
# [21] = Homo sapiens, SK-N-AS, SKNAS, brain
# [22] = Homo sapiens, SK-N-SH, SKNSH, brain
# [23] = Homo sapiens, SK-OV-3, SKOV3, ovary
# [24] = Homo sapiens, SNB-75, SNB75, brain
# [25] = Homo sapiens, SU-DHL-6, SU-DHL-6, hematological
# [26] = Homo sapiens, SW-620, SW620, colon
# [27] = Homo sapiens, TE-671, TE671, muscle
# [28] = Homo sapiens, THP-1, THP-1, hematological
# [29] = Homo sapiens, U-87 MG, U87MG, brain
# [30] = Homo sapiens, UMUC3, UMUC3, bladder
# [31] = Homo sapiens, UO-31, UO31, kidney
# [32] = Homo sapiens, WSU-NHL, hematological
compound,measurement,setting,value
"CC(=O)N[C@@H](Cc1c[nH]c2ccccc12)C(=O)N[C@@H](CCC(=O)C=[N+]=[N-])C(=O)OC(C)C [Compound 1, Isopropyl (S)-2-((S)-2-acetamido-3-(1H-indol-3-yl)propanamido)-6-diazo-5-oxohexanoate]",GI50,[1],0.531 µM
same,IC50,[1],0.789 µM
same,GI50,[2],4.6 µM
same,IC50,[2],5.38 µM
same,GI50,[3],6.19 µM
same,IC50,[3],6.34 µM
same,GI50,[4],3.29 µM
same,IC50,[4],3.56 µM
same,GI50,[5],0.61 µM
same,IC50,[5],0.798 µM
same,GI50,[6],0.976 µM
same,IC50,[6],1.03 µM
same,GI50,"Homo sapiens, NCI-H292, NCIH292, lung",14.5 µM
same,GI50,[7],4.74 µM
same,IC50,[7],5.01 µM
same,GI50,[8],1.65 µM
same,IC50,[8],4.06 µM
same,GI50,[9],0.812 µM
same,IC50,[9],1.67 µM
same,GI50,[10],7.98 µM
same,IC50,[10],8.46 µM
same,GI50,[11],6.15 µM
same,IC50,[11],7.45 µM
same,GI50,[12],14.8 µM
same,IC50,[12],28.9 µM
same,GI50,"Homo sapiens, Ramos, hematological",6.63 µM
same,GI50,[13],2.8 µM
same,IC50,[13],20.8 µM
same,GI50,[14],7.37 µM
same,IC50,[14],9.53 µM
same,GI50,[15],9.73 µM
same,IC50,[15],10.9 µM
same,GI50,[16],2.65 µM
same,IC50,[16],3.91 µM
same,GI50,[17],3.93 µM
same,IC50,[17],5.12 µM
same,GI50,[18],1.34 µM
same,IC50,[18],2.15 µM
same,GI50,[19],2.05 µM
same,IC50,[19],2.9 µM
same,GI50,[20],1.23 µM
same,IC50,[20],1.61 µM
same,GI50,[21],7.62 µM
same,IC50,[21],18.6 µM
same,GI50,[22],8.18 µM
same,IC50,[22],9.15 µM
same,GI50,[23],1.26 µM
same,IC50,[23],3.81 µM
same,GI50,[24],18.4 µM
same,IC50,[24],40 µM
same,GI50,"Homo sapiens, SU-DHL10, SU-DHL-10, hematological",4.18 µM
same,GI50,[25],0.971 µM
same,IC50,[25],1.13 µM
same,GI50,[26],7.96 µM
same,IC50,[26],8.58 µM
same,GI50,[27],5.44 µM
same,IC50,[27],5.97 µM
same,GI50,[28],1.99 µM
same,IC50,[28],2.25 µM
same,GI50,"Homo sapiens, U2OS, bone",10 µM
same,IC50,"Homo sapiens, U2OS, bone",12.9 µM
same,GI50,[29],2.38 µM
same,IC50,[29],4.1 µM
same,GI50,[30],2.32 µM
same,IC50,[30],2.75 µM
same,GI50,[31],17.7 µM
same,IC50,[31],44.9 µM
same,GI50,[32],1.16 µM
same,IC50,[32],1.5 µM
same,IC50,"J82, bladder",15.9 µM
same,IC50,"JAR, placenta",2.41 µM
same,IC50,"MT3, breast",1.46 µM
same,GI50,"NCI-H358M, NCIH358M, lung",3.31 µM
same,IC50,"NCI-H358M, NCIH358M, lung",8.92 µM
same,GI50,"PBMC, 5637, bladder",2.15 µM
same,GI50,"PBMC, CLS439, bladder",7.57 µM
same,GI50,"PBMC, HS729, muscle",10.1 µM
same,GI50,"PBMC, J82, bladder",14.2 µM
same,GI50,"PBMC, JAR, placenta",2.23 µM
same,GI50,"PBMC, MT3, breast",1.1 µM
same,GI50,"PBMC, PC3, prostate",11.5 µM
same,GI50,"PBMC, RD, muscle",4.05 µM
same,GI50,"PBMC, T24, bladder",4.71 µM
same,IC50,"PC3, prostate",17.9 µM
same,IC50,"RD, muscle",5.44 µM
same,GI50,"RD-ES, RDES, bone",3.95 µM
same,IC50,"RD-ES, RDES, bone",5.48 µM
same,IC50,"T24, bladder",4.95 µM

# — patent publication US20220117938A1, “COMBINATON THERAPY WITH A DON PRODRUG AND AN IMMUNE CHECKPOINT INHIBITOR” (DRACEN PHARMACEUTICALS, INC., priority 2019, published 2022)
